# Test results reported in ChEMBL document CHEMBL1147797, “Construction of human ghrelin receptor (hGHS-R1a) model using a fragmental prediction approach and validation through docking analysis” (J Med Chem, 2006).
# Target: Growth hormone secretagogue receptor type 1 (Homo sapiens, UniProt Q92847)
# Assay: Activity at human GHS-R1a receptor in rat pituitary cells assessed as GH release
# Format: cell-based, Pituitary gland cell
# Chain of Growth hormone secretagogue receptor type 1 (Q92847 whole entry): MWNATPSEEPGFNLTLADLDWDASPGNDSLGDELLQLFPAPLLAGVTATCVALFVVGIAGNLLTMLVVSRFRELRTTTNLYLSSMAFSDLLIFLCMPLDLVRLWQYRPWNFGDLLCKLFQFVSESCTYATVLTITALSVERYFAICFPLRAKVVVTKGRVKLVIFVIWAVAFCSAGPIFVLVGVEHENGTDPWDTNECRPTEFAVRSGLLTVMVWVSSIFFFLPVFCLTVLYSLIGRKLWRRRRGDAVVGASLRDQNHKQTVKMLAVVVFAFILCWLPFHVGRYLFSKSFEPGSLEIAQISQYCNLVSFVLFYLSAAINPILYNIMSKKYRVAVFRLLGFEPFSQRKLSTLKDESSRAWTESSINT
row,SMILES,EC50
1,CC(C)(N)C(=O)N[C@H](CCc1ccccc1)C(=O)N1CCC2(CCc3ccccc32)CC1,22 nM
2,CN(CCc1cccs1)C(=O)[C@@H](Cc1ccc(-c2ccccc2)cc1)N(C)C(=O)/C=C/CC(C)(C)N,5 nM
3,CC(C)(N)C(=O)N[C@H](CCCc1ccccc1)C(=O)N1CCC2(CC1)C[S+]([O-])c1ccccc12 (stereo partly drawn),2.5 nM
4,CN(CCc1cccs1)C(=O)[C@@H](Cc1ccc2ccccc2c1)N(C)C(=O)/C=C/CC(C)(C)N,7.5 nM
5,CC(C)(N)C(=O)N[C@H](Cc1c[nH]c2ccccc12)C(=O)N1CCC2(CC1)CSc1ccccc12,5.6 nM
6,CC(C)(N)C(=O)N[C@H](CCCc1ccccc1)C(=O)N1CCC2(CC1)COc1ccccc12,2.7 nM
7,CC(C)(N)C(=O)N[C@H](COCc1ccccc1)C(=O)N1CCC2(CC1)CS(=O)(=O)c1ccccc12,5 nM
8,CCN1N=C2CCN(C(=O)[C@@H](COCc3ccccc3)NC(=O)C(C)(C)N)C[C@]2(Cc2ccccc2)C1=O,4 nM
9,CC(C)(N)C(=O)N[C@H](CCCc1ccccc1)C(=O)N1CCC2(CCc3ccccc32)CC1,10 nM
10,CNC(C)(C)C/C=C/C(=O)N(C)[C@H](Cc1ccc2ccccc2c1)C(=O)N(C)CCc1cccs1,0.8 nM
11,CC(C)(N)C(=O)N[C@H](COCc1ccccc1)C(=O)N1CCC2(CCc3ccccc32)CC1,17 nM
12,CNC(=O)NCc1ccccc1-c1ccc(CN2C(=O)[C@H](NC(=O)C(C)(C)N)CCc3ccccc32)cc1,1 nM
13,CC(C)(N)C(=O)N[C@H](Cc1c[nH]c2ccccc12)C(=O)N1CCC2(CCc3ccccc32)CC1 [L-162752],14 nM
14,CNC(C)(C)C/C=C/C(=O)N(C)[C@H](Cc1ccc2ccccc2c1)C(=O)N(C)Cc1ccccc1,3 nM
15,CN1N=C2CCN(C(=O)[C@@H](COCc3ccccc3)NC(=O)C(C)(C)N)C[C@]2(Cc2ccccc2)C1=O,3 nM
16,CC(C)(N)C(=O)N[C@H](COCc1ccccc1)C(=O)N1CCC2=NNC(=O)[C@@]2(Cc2ccccc2)C1,3 nM
17,CC(C)(N)C(=O)N[C@H](CCCc1ccccc1)C(=O)N1CCC2(CC1)CSc1ccccc12,4.8 nM

# Next, values leading:
row,EC50,SMILES
1,57 nM,CC(C)(N)C(=O)N[C@H](CCc1ccccc1)C(=O)N1CCC2(CC1)CSc1ccccc12
2,18 nM,CN(CCc1ccccc1NS(C)(=O)=O)C(=O)[C@@H](Cc1ccc2ccccc2c1)N(C)C(=O)/C=C/CC(C)(C)N
3,8.5 nM,CC(C)(N)C(=O)N[C@H](COCc1ccccc1)C(=O)N1CCC2(CC1)C[S+]([O-])c1ccccc12 (stereo partly drawn)
4,3 nM,CNC(=O)[C@@H](Cc1ccccc1)N(C)C(=O)[C@@H](Cc1ccc2ccccc2c1)N(C)C(=O)/C=C/CC(C)(C)N [TABIMORELIN]
5,6 nM,CCNC(=O)NCc1ccccc1-c1ccc(CN2C(=O)[C@H](NC(=O)C(C)(C)N)CCc3ccccc32)cc1
6,6 nM,CC(C)(N)C(=O)N[C@H](CCc1ccccc1)C(=O)N1CCC2(CC1)CS(=O)(=O)c1ccccc12
7,8.5 nM,CC(C)(N)C(=O)N[C@H](COCc1ccccc1)C(=O)N1CCC2(CC1)COc1ccccc12
8,0.8 nM,CCNC(=O)[C@@]1(Cc2ccccc2)CCCN(C(=O)[C@@H](Cc2c[nH]c3ccccc23)NC(=O)C(C)(C)N)C1
9,0.6 nM,CC(C)(N)C(=O)N[C@H](Cc1c[nH]c2ccccc12)C(=O)N1CCC2(CC1)C[C@@H](O)c1ccccc12
10,2.1 nM,CC(C)(N)C(=O)N[C@H](Cc1c[nH]c2ccccc12)C(=O)N1CCC2(CC1)CS(=O)(=O)c1ccccc12
11,2 nM,CC(C)(N)C(=O)N[C@@H]1CCc2ccccc2N(Cc2ccc(-c3ccccc3CNC(=O)NCCO)cc2)C1=O
12,1.6 nM,CCOC(=O)[C@@]1(Cc2ccccc2)CCCN(C(=O)[C@@H](Cc2c[nH]c3ccccc23)NC(=O)C(C)(C)N)C1
13,10 nM,CC(C)(N)C(=O)N[C@H](COCc1ccccc1)C(=O)N1CCC2(CC1)CSc1ccccc12
14,1.1 nM,CC(C)(N)C(=O)N[C@H](CCCc1ccccc1)C(=O)N1CCC2(CC1)CS(=O)(=O)c1ccccc12
15,5 nM,CNC(C)(C)C/C=C/C(=O)N(C)[C@H](Cc1ccc2ccccc2c1)C(=O)N(C)CCc1ccccc1OCCO
16,5 nM,CN(CCc1ccccc1OCCO)C(=O)[C@@H](Cc1ccc2ccccc2c1)N(C)C(=O)/C=C/CC(C)(C)N
